From the NIST ThermoML archive (doi:10.1016/j.jct.2017.08.004)
Numbers after ± are expanded uncertainties.

Assay: molar heat capacity at constant pressure
Settings: 101.33 kPa, Crystal

OC[C@@H](O)C(O)[C@H](O)CO [D-arabitol]
Settings	molar heat capacity at constant pressure [J/K/mol]
1 K, relaxation calorimetry	0.0009451 ± 0.0001
1.937 K, relaxation calorimetry	0.004787 ± 0.0004
2 K, relaxation calorimetry	0.005256 ± 0.00036
2.125 K, relaxation calorimetry	0.006243 ± 0.00051
2.35 K, relaxation calorimetry	0.008303 ± 0.00063
2.6 K, relaxation calorimetry	0.01105 ± 0.00082
2.887 K, relaxation calorimetry	0.01495 ± 0.0011
3 K, relaxation calorimetry	0.01673 ± 0.0011
3.199 K, relaxation calorimetry	0.02023 ± 0.0015
3.546 K, relaxation calorimetry	0.02753 ± 0.002
3.931 K, relaxation calorimetry	0.03744 ± 0.0027
4 K, relaxation calorimetry	0.04001 ± 0.0025
4.359 K, relaxation calorimetry	0.05185 ± 0.0037
4.836 K, relaxation calorimetry	0.07292 ± 0.0052
5 K, relaxation calorimetry	0.08105 ± 0.0051
5.366 K, relaxation calorimetry	0.1017 ± 0.0072
5.953 K, relaxation calorimetry	0.1443 ± 0.01
6 K, relaxation calorimetry	0.1475 ± 0.0092
6.605 K, relaxation calorimetry	0.205 ± 0.014
7 K, relaxation calorimetry	0.2508 ± 0.016
7.334 K, relaxation calorimetry	0.2964 ± 0.021
8 K, relaxation calorimetry	0.4038 ± 0.025
8.14 K, relaxation calorimetry	0.43 ± 0.03
9 K, relaxation calorimetry	0.6157 ± 0.038
9.034 K, relaxation calorimetry	0.6226 ± 0.044
10 K, relaxation calorimetry	0.8917 ± 0.055
10.11 K, relaxation calorimetry	0.9222 ± 0.065
11.21 K, relaxation calorimetry	1.313 ± 0.092
12.44 K, relaxation calorimetry	1.849 ± 0.13
13.81 K, relaxation calorimetry	2.558 ± 0.18
15 K, relaxation calorimetry	3.255 ± 0.2
15.35 K, relaxation calorimetry	3.473 ± 0.24
17.03 K, relaxation calorimetry	4.645 ± 0.32
18.91 K, relaxation calorimetry	6.093 ± 0.42
20 K, relaxation calorimetry	6.963 ± 0.43
21.01 K, relaxation calorimetry	7.823 ± 0.32
23.33 K, relaxation calorimetry	9.878 ± 0.4
25 K, relaxation calorimetry	11.45 ± 0.7
25.91 K, relaxation calorimetry	12.28 ± 0.5
28.73 K, relaxation calorimetry	15.02 ± 0.61
30 K, relaxation calorimetry	16.29 ± 1
31.9 K, relaxation calorimetry	18.17 ± 0.74
35 K, relaxation calorimetry	21.27 ± 1.3
35.42 K, relaxation calorimetry	21.72 ± 0.88
39.33 K, relaxation calorimetry	25.68 ± 1
40 K, relaxation calorimetry	26.29 ± 1.6
43.65 K, relaxation calorimetry	29.96 ± 1.2
45 K, relaxation calorimetry	31.26 ± 1.9
48.46 K, relaxation calorimetry	34.52 ± 1.4
50 K, relaxation calorimetry	36.09 ± 2.2
53.77 K, relaxation calorimetry	39.56 ± 1.6
55 K, relaxation calorimetry	40.76 ± 2.5
59.7 K, relaxation calorimetry	45.1 ± 1.8
60 K, relaxation calorimetry	45.36 ± 2.8
65 K, relaxation calorimetry	49.82 ± 3.1
66.28 K, relaxation calorimetry	51.01 ± 2.1
70 K, relaxation calorimetry	54.16 ± 3.3
73.58 K, relaxation calorimetry	57.16 ± 2.3
75 K, relaxation calorimetry	58.37 ± 3.6
80 K, relaxation calorimetry	62.48 ± 3.8
81.67 K, relaxation calorimetry	64.04 ± 2.6
85 K, relaxation calorimetry	66.48 ± 4.1
90 K, relaxation calorimetry	70.37 ± 4.3
90.67 K, relaxation calorimetry	71 ± 2.9
95 K, relaxation calorimetry	74.17 ± 4.5
100 K, relaxation calorimetry	77.87 ± 4.8
100.64 K, relaxation calorimetry	77.78 ± 3.2
110 K, relaxation calorimetry	85.02 ± 5.2
110.77 K, relaxation calorimetry	85.2 ± 3.5
120 K, relaxation calorimetry	91.85 ± 5.6
120.77 K, relaxation calorimetry	92.62 ± 3.8
130 K, relaxation calorimetry	98.42 ± 6
130.79 K, relaxation calorimetry	99.38 ± 4
140 K, relaxation calorimetry	104.78 ± 6.4
140.95 K, relaxation calorimetry	105.44 ± 4.3
150 K, relaxation calorimetry	110.97 ± 6.8
151.07 K, relaxation calorimetry	111.74 ± 4.5
160 K, relaxation calorimetry	117.04 ± 7.2
161.18 K, relaxation calorimetry	117.79 ± 4.8
170 K, relaxation calorimetry	123.02 ± 7.5
171.3 K, relaxation calorimetry	123.63 ± 5
180 K, relaxation calorimetry	128.94 ± 7.9
181.38 K, relaxation calorimetry	129.86 ± 5.3
188.15 K, Small sample (50 mg) DSC	120.48 ± 9.8
189.15 K, Small sample (50 mg) DSC	123.07 ± 10
190 K, relaxation calorimetry	134.84 ± 8.3
190.15 K, Small sample (50 mg) DSC	124.65 ± 10
191.15 K, Small sample (50 mg) DSC	125.58 ± 10
191.48 K, relaxation calorimetry	135.82 ± 5.5
192.15 K, Small sample (50 mg) DSC	126.38 ± 10
193.15 K, Small sample (50 mg) DSC	127.14 ± 10
194.15 K, Small sample (50 mg) DSC	128.51 ± 10
195.15 K, Small sample (50 mg) DSC	129.68 ± 11
196.15 K, Small sample (50 mg) DSC	130.93 ± 11
197.15 K, Small sample (50 mg) DSC	131.96 ± 11
198.15 K, Small sample (50 mg) DSC	132.82 ± 11
199.15 K, Small sample (50 mg) DSC	133.79 ± 11
200 K, relaxation calorimetry	140.73 ± 8.6
200.15 K, Small sample (50 mg) DSC	134.6 ± 11
201.15 K, Small sample (50 mg) DSC	135.54 ± 11
201.59 K, relaxation calorimetry	141.2 ± 5.7
202.15 K, Small sample (50 mg) DSC	136.28 ± 11
203.15 K, Small sample (50 mg) DSC	137.06 ± 11
204.15 K, Small sample (50 mg) DSC	137.97 ± 11
205.15 K, Small sample (50 mg) DSC	138.38 ± 11
206.15 K, Small sample (50 mg) DSC	139.19 ± 11
207.15 K, Small sample (50 mg) DSC	139.97 ± 11
208.15 K, Small sample (50 mg) DSC	140.52 ± 11
209.15 K, Small sample (50 mg) DSC	141.24 ± 11
210 K, relaxation calorimetry	146.63 ± 9
210.15 K, Small sample (50 mg) DSC	141.94 ± 12
211.15 K, Small sample (50 mg) DSC	142.48 ± 12
211.7 K, relaxation calorimetry	147.25 ± 6
212.15 K, Small sample (50 mg) DSC	142.99 ± 12
213.15 K, Small sample (50 mg) DSC	143.53 ± 12
214.15 K, Small sample (50 mg) DSC	144.41 ± 12
215.15 K, Small sample (50 mg) DSC	145.07 ± 12
216.15 K, Small sample (50 mg) DSC	145.48 ± 12
217.15 K, Small sample (50 mg) DSC	146.17 ± 12
218.15 K, Small sample (50 mg) DSC	147.07 ± 12
219.15 K, Small sample (50 mg) DSC	147.64 ± 12
220 K, relaxation calorimetry	152.57 ± 9.3
220.15 K, Small sample (50 mg) DSC	148.47 ± 12
221.15 K, Small sample (50 mg) DSC	149.24 ± 12
221.79 K, relaxation calorimetry	153.65 ± 6.2
222.15 K, Small sample (50 mg) DSC	149.98 ± 12
223.15 K, Small sample (50 mg) DSC	150.71 ± 12
224.15 K, Small sample (50 mg) DSC	151.3 ± 12
225.15 K, Small sample (50 mg) DSC	152.01 ± 12
226.15 K, Small sample (50 mg) DSC	152.68 ± 12
227.15 K, Small sample (50 mg) DSC	153.31 ± 12
228.15 K, Small sample (50 mg) DSC	153.85 ± 12
229.15 K, Small sample (50 mg) DSC	154.52 ± 13
230 K, relaxation calorimetry	158.55 ± 9.7
230.15 K, Small sample (50 mg) DSC	155.25 ± 13
231.15 K, Small sample (50 mg) DSC	155.76 ± 13
231.88 K, relaxation calorimetry	159.8 ± 9.8
232.15 K, Small sample (50 mg) DSC	156.46 ± 13
233.15 K, Small sample (50 mg) DSC	157.18 ± 13
234.15 K, Small sample (50 mg) DSC	157.71 ± 13
235.15 K, Small sample (50 mg) DSC	158.49 ± 13
236.15 K, Small sample (50 mg) DSC	159.12 ± 13
237.15 K, Small sample (50 mg) DSC	159.84 ± 13
238.15 K, Small sample (50 mg) DSC	160.39 ± 13
239.15 K, Small sample (50 mg) DSC	160.99 ± 13
240 K, relaxation calorimetry	164.59 ± 10
240.15 K, Small sample (50 mg) DSC	161.64 ± 13
241.15 K, Small sample (50 mg) DSC	162.22 ± 13
241.88 K, relaxation calorimetry	165.73 ± 10
242.15 K, Small sample (50 mg) DSC	162.77 ± 13
243.15 K, Small sample (50 mg) DSC	163.32 ± 13
244.15 K, Small sample (50 mg) DSC	163.71 ± 13
245.15 K, Small sample (50 mg) DSC	164.33 ± 13
246.15 K, Small sample (50 mg) DSC	165.01 ± 13
247.15 K, Small sample (50 mg) DSC	165.5 ± 13
248.15 K, Small sample (50 mg) DSC	166.22 ± 14
249.15 K, Small sample (50 mg) DSC	167 ± 14
250 K, relaxation calorimetry	170.71 ± 10
